The test system of series [1] is T98G. More on the design: method as in PMID 25053824. The note with it: cited from earlier work.
Series [2] deals with U87-MG. More on the design: method as in PMID 25053824. Particulars: cited from earlier work.
A short description of series [3]: MTT cytotoxicity, healthy astrocytes. The format is cell-based. The note with it: human, normal human astrocytes (NHA), doses between 0.1 and 10 μM, read-out: cell viability. How it is done:
(§1) Gli36ΔEGFR-2 and U87-MG were used as GBM in vitro models. Gli36ΔEGFR [27, 28], carrying the EGFRvIII mutation, was made resistant to TMZ after 1 month of in vitro exposure to 50 µM TMZ [29]. These cells were selected because the TMZ sensitivity was repeatedly tested in vitro and in vivo in orthotopic GBM models. Both Gli36ΔEGFR-2 and U87-MG were maintained in Dulbecco’s Modified Eagle Medium (DMEM) High Glucose w/o sodium pyruvate (ECM0101L, Euroclone, Milan, Italy) supplemented with 10% fetal bovine serum (FBS, ECS0180L, Euroclone, Milan, Italy), 4 mM L-glutamine (ECB3000D, Euroclone, Milan, Italy), and 100 U ml^−1 penicillin/streptomycin (P/S) (ECB3001B, Euroclone, Milan, Italy). Normal human astrocytes (NHAs, CC-2565, Lonza, Basel, Switzerland) were used as healthy astrocytes and maintained in AGM^TM Astrocyte Growth Medium BulletKit^TM (CC-3186, Lonza) as per the manufacturer’s protocol. Human cerebral microvascular endothelial cells (hCMECs), provided by Dr. S. Bourdoulous (Institut Cochin, Inserm, Paris, France), were used as a model of brain endothelial cells and cultured as reported in the literature. […]
(§2) The effect of free or encapsulated Givinostat was assessed by the MTT assay. […] At the designated times, the assay was performed as per the manufacturer’s protocol and absorbance was measured at 570 nm using a microplate reader (SPECTROstar Nano, BMG LABTECH, Ortenberg, Germany). […]

Series [4] can be described thus: Plasma pharmacokinetics after i.v. injection (LC-MS/MS). Particulars: Swiss CD1, mouse, iv, mice. In kind it is in vivo. On the procedure: (§3) Mice were sacrificed at different time points up to 48 h after the injection and blood and brain were harvested. Blood was collected from the cava vein in tubes coated with Li-heparin anticoagulant and centrifuged at +4 °C, 3000 g for 10 min to obtain the plasma. After blood collection, brain was harvested, washed in saline, dried on absorbent paper, weighed, and placed into appropriate tubes. All samples were analyzed for their Givinostat content using the LC-MS/MS method. Stock solution of Givinostat, […]2375 (metabolites), and internal standard ITF2400 were prepared in ACN/water 1:1 at 1 mg/mL. Working solutions were prepared by sequential dilution in water:ACN 8:2. Brains were homogenized in 20 mM ammonium formate buffer (1 g/5 mL). In total, 45 μL of blank plasma or brain homogenates was added to 200 μL of ACN containing ITF2400 at 25 ng/mL and acted as internal standards. Samples were vortexed for 3 min and centrifuged for 10 min at 5 °C at […]. Samples were transferred into a 96-well plate, dried under nitrogen flow, and resuspended in 200 μL 0.1% FA H2O/ACN (75:25). After vortexing, samples were injected into LC-MS/MS. Samples were analyzed on a UPLC Acquity (Waters, Milford, MA, USA) coupled with an API 3200 Triple Quadrupole (ABSciex). Mobile phases were water and ACN with 0.1% FA on a Kinetex 2.6 μm C18 100 A 75 × 3 mm (Phenomenex, Torrance, CA, USA). Analytes were quantified in MRM ESI positive mode. […] Pharmacokinetic parameters were calculated using Excel Add in (PK Solver 2.0, Excel 2007 Microsoft add in). AUCs were calculated using an NCA by the linear trapezoidal rule, and a uniform weight was performed as a first approach. Graphical concentration-time curves were produced after Log transformation. The ke was estimated from the terminal part of the log-concentration-time plot including at least three data points excluding the Cmax.

A short description of series [5]: Brain penetration after i.v. injection (LC-MS/MS). In kind it is in vivo, Swiss CD1 mice. The note with it: mice. How it is done:
as §3

In series [6] the test system is Gli36ΔEGFR-2. Kind of series: MTT cytotoxicity, GBM cells. In kind it is cell-based. The note with it: Homo sapiens, 24 h of treatment, read-out: mean calculated IC50. How it is done:
as §1, §2

Series [7] concerns VLDLR. Kind of series: Immunoblot of receptor level in Gli36ΔEGFR-2. In kind it is cell-based, human. Particulars: Western blot; Figure 8 legend: LIP-GIV. On the procedure: (§4) Whole cell lysates were obtained by washing cells twice in cold PBS and harvesting in 60 μL of radioimmunoprecipitation assay (RIPA) buffer (cat. no. 89901, ThermoFisher) supplemented with 1% of protease and phosphatase inhibitor cocktail (cat. no. 78446, ThermoFisher). Whole cell lysates were quantified using a BCA Protein Assay Kit (cat. No. 23227, ThermoFisher) and separated by electrophoresis through precast gels (NuPAGE^TM 4–12% Bis-Tris, 1.0 mm, Mini Protein Gel 10 or 15-wells, cat. No. NP0321 and NP0323, ThermoFisher).
(§5) Proteins were transferred to nitrocellulose membranes using iBlot^TM Transfer Stack (cat. No. IB301002, ThermoFisher) and membranes were blocked either in 5% milk or in 5% BSA in TBS with 0.1% Tween-20 (TBST) for 1 h. Membranes were then incubated overnight at 4 °C with the following primary antibodies: Acetyl-α-Tubulin (5335, 1:1000), α-Tubulin (2144, 1:1000), Histone H3 (9715, 1:1000) and β-Tubulin (2146, 1:1000) purchased from CST; β-Actin (MA5-15739, 1:5000), GAPDH (MA1-16757, 1:5000), VLDLR (MA5-24790, 1:1000), ABCA1 (PA1-16789, 1:500), LRP1 (MA1-27198, 1:500), and LDLR (PA5-22976, 1:1000) purchased from ThermoFisher. Membranes were incubated with secondary anti-rabbit antibody (A0545, 1:5000, Merck) or anti-mouse antibody (G21040, 1:20,000, Invitrogen) for 1 h at RT. Bands were detected using Immobilion ECL Ultra Western HRP Substrate (WBULS0100, Merck) under chemiluminescence using an Amersham Imager 600 (Cytiva, Marlborough MA, USA). Quantifications were made using ImageLab Software Version 6.1 (Bio-Rad, www.bio-rad.com).

The test system of series [8] is LDLR. The series can be described thus: Immunoblot of receptor level in Gli36ΔEGFR-2. In kind it is cell-based, human. Particulars: Western blot; Figure 8 legend: LIP-GIV. On the procedure:
as §4, §5

Series [9] concerns LRP1. The series can be described thus: Immunoblot of receptor level in Gli36ΔEGFR-2. The format is cell-based, human. The note with it: Western blot; Figure 8 legend: LIP-GIV. On the procedure:
as §4, §5
Background: Immunoblotting shows a protein as a band on a membrane.

In series [10] the test system is ABCA1. Kind of series: Immunoblot of ABCA1 level in Gli36ΔEGFR-2. In kind it is cell-based, human. Particulars: Western blot; Figure 8 legend: LIP-GIV, 24 h. How it is done:
as §4
Proteins were transferred to nitrocellulose membranes using iBlot^TM Transfer Stack (cat. No. IB301002, ThermoFisher) and membranes were blocked either in 5% milk or in 5% BSA in TBS with 0.1% Tween-20 (TBST) for 1 h. […] Bands were detected using Immobilion ECL Ultra Western HRP Substrate (WBULS0100, Merck) under chemiluminescence using an Amersham Imager 600 (Cytiva, Marlborough MA, USA). Quantifications were made using ImageLab Software Version 6.1 (Bio-Rad, www.bio-rad.com).

Results on two compounds are retold here after publication PMC9220922, “Givinostat-Liposomes: Anti-Tumor Effect on 2D and 3D Glioblastoma Models and Pharmacokinetics” (Cancers, 2022).

Structures are written as SMILES.

As a reminder, the IC50 is the concentration that inhibits the measured activity by half. Consider `Cn1nnc2c(C(N)=O)ncn2c1=O` [TMZ, temozolomide], for which the IC50 in series [1] and in series [2] was 100 to 500 µM each time.

One may read the viability as a read-out of living cells in per cent, often relative to untreated cells. The clearance is the volume of plasma or blood freed of the substance per unit of time. As a reminder, the Cmax is the highest concentration seen after dosing. Turning to `CCN(CC)Cc1ccc2cc(COC(=O)Nc3ccc(C(=O)NO)cc3)ccc2c1` [Givinostat, [6-diethylaminomethyl) naphtalen-2-yl] methyl N-[4-(hydroxycarbamoyl) phenyl] carbamate], the viability at 24 h in series [3] is not below 100%. The concentration at 5 min in series [4] (7.5 mg/kg i.v., 5 min, read-out: Givinostat plasma level) was found to be 1030 ng/mL; in series [5] (Swiss CD1, mouse, brain, iv, 7.5 mg/kg i.v., 5 min, read-out: Givinostat brain level) it was 102 ng/g. In addition, the concentration at 10 min amounted to 597 ng/mL in [4] (7.5 mg/kg i.v., 10 min, read-out: Givinostat plasma level) and 101 ng/g in series [5] (Swiss CD1, mouse, brain, iv, 7.5 mg/kg i.v., 10 min, read-out: Givinostat brain level). Also, the concentration at 0.25 h came out at 431 ng/mL in series [4] (7.5 mg/kg i.v., 0.25 h, read-out: Givinostat plasma level) and 90 ng/g in [5] (Swiss CD1, mouse, brain, iv, 7.5 mg/kg i.v., 0.25 h, read-out: Givinostat brain level). Further, the concentration at 0.5 h in series [4] (7.5 mg/kg i.v., 0.5 h, read-out: Givinostat plasma level) was 256 ng/mL; in series [5] (Swiss CD1, mouse, brain, iv, 7.5 mg/kg i.v., 0.5 h, read-out: Givinostat brain level), 83 ng/g. The concentration at 1 h in series [4] (7.5 mg/kg i.v., 1 h, read-out: Givinostat plasma level) turned out to be 75 ng/mL; in series [5] (Swiss CD1, mouse, brain, iv, 7.5 mg/kg i.v., 1 h, read-out: Givinostat brain level), 44 ng/g. For the same compound, the concentration at 2 h in series [4] (7.5 mg/kg i.v., 2 h, read-out: Givinostat plasma level) is 19 ng/mL; in series [5] (Swiss CD1, mouse, brain, iv, 7.5 mg/kg i.v., 2 h, read-out: Givinostat brain level), 30 ng/g. For the same compound, the concentration at 4 h worked out at 6 ng/mL in series [4] (7.5 mg/kg i.v., 4 h, read-out: Givinostat plasma level) and 13 ng/g in series [5] (Swiss CD1, mouse, brain, iv, 7.5 mg/kg i.v., 4 h, read-out: Givinostat brain level). Also, the concentration at 6 h was 4 ng/mL in series [4] (7.5 mg/kg i.v., 6 h, read-out: Givinostat plasma level) and 7 ng/g in series [5] (Swiss CD1, mouse, brain, iv, 7.5 mg/kg i.v., 6 h, read-out: Givinostat brain level). Also, the MRT last in series [4] (7.5 mg/kg single i.v., read-out: mean residence time (MRT0-t)) was determined as 0.6 h. Further, the clearance in [4] (7.5 mg/kg single i.v., read-out: plasma clearance (CL) (converted)) was 257 mL/min/kg. Further, the AUC(0-t) in series [4] (7.5 mg/kg single i.v., read-out: plasma exposure (AUC0-t)) was found to be 478 ng·h/mL. Moreover, the Vd in series [4] (7.5 mg/kg single i.v., read-out: volume of distribution) was 10.8 L/kg. In addition, in series [4] (Givinostat 7.5 mg/kg single i.v., read-out: half-life (t1/2) (converted)), the half-life is 1.7 h. Besides, the Kp in [5] (Swiss CD1, mouse, brain and plasma, iv, 7.5 mg/kg single i.v., read-out: AUCbrain/AUCplasma ratio) is 0.372. The same compound yielded a Cmax in series [5] (Swiss CD1, mouse, brain, iv, 7.5 mg/kg single i.v.) of approximately 100 ng/g. Also, the Givinostat brain level result in series [5] (7.5 mg/kg i.v., 24 h) is recorded as “below detection limits”. Also, the IC50 in [6] was 0.75 µM. Besides, in series [7], the VLDLR protein level result is “significantly reduced”. In [8], the LDLR protein level entry is on record as “significantly reduced”. Further, in series [9], the LRP1 protein level result is reported as “significantly reduced”. Besides, the ABCA1 expression entry in [10] is given as “non-significant trend towards a decrease”.
